Consider 19 compounds from patent publication US20230138414A1, “METHODS AND COMPOSITIONS FOR PREVENTING AND TREATING MYOPIA” (The Trustees of Columbia University in the City of New York, priority 2020, published 2023).

In data set [1] the test system is myopia development. As to conditions: chickens and guinea pigs; cited from earlier work.
For another data set, the system named is sclera. The following applies: rabbit, in vivo; cited from earlier work.
Data set [2] deals with progression of myopia in children. As to conditions: daily oral 400 mg (∼15 mg/kg), cited from earlier work.
Data set [3] has as its system myopia. As to conditions: 300 mg/kg dose, guinea pigs; cited from earlier work.
In the next data set the test system is induced myopia. As to conditions: 30 mg/kg dose, rabbits; cited from earlier work.
Data set [4] deals with myopia. As to conditions: monkeys; effect strongly depended on the genetic background; cited from earlier work.
Data set [5] concerns mice with experimentally induced myopia. The data set is described as follows: Lens-induced myopia (-25 D lens over right eye, 3 weeks), drug in diet. As to conditions: for interocular difference in refractive error between lens-treated eyes and control eyes: after 3 weeks of lens treatment, control group -10.47 ± 3.02 D; for inhibition (suppression) of myopia: systemic oral administration, 3 weeks, -25 D lens, B6 mice. The format is in vivo, C57BL/6J (B6) mice. The text has this:
Myopia was induced in 24-days old C57BL/6J (B6) mice by attaching -25 diopter (D) lens placed in a plastic 3D-printed frame over right eye. The contralateral eye served as control. Mice were raised with lenses for 3 weeks (FIG. 1A). After 3 weeks, the lenses were removed and refractive errors in the lens-treated eyes and contralateral control eyes were compared. Lens-treatment produced myopia in the lens-treated eyes (average refractive error = -14.6 ± 0.3 D) relative to the control eyes (average refractive error = +0.6 ± 0.6 D) (FIG. 1B); the interocular difference in refractive error (-15.2 ± 0.7 D) was highly significant (P < 0.0001). […] The diameter of lens-treated eyes was on average 65 ± 8 µm larger (P < 0.0001; FIG. 1C), and the vitreous chamber depth in the lens-treated eyes was 61 ± 4 µm longer (P < 0.0001; FIG. 1C), than that of the control fellow eyes.
The experimental group of B6 mice was raised with -25 D lenses over right eye (as described in Example 1) on a diet supplemented with 5 mg/kg of levocabastine hydrochloride for 3 weeks, while the control group of B6 mice with -25 D lenses over right eye was raised on a regular non-medicated diet. The interocular difference in refractive error between lens-treated eyes and control eyes in the levocabastine-treated animals after 3 weeks of lens treatment was +0.55 ± 2.32 D versus -10.47 ± 3.02 D in the control group, P-value = 2.83 × 10^-10.
The experimental group of B6 mice was raised with -25 D lenses over right eye on a diet supplemented with 1 mg/kg of fenoterol hydrobromide for 3 weeks, while the control group of B6 mice with -25 D lenses over right eye was raised on a regular non-medicated diet. The interocular difference in refractive error between lens-treated eyes and control eyes in the fenoterol-treated animals after 3 weeks of lens treatment was -0.8 ± 1.80 D versus -10.47 ± 3.02 D in the control group, P = 2.47 × 10^-08.
The experimental group of B6 mice was raised with -25 D lenses over right eye on a diet supplemented with 1 mg/kg of trichostatin A for 3 weeks, while the control group of B6 mice with -25 D lenses over right eye was raised on a regular non-medicated diet. The interocular difference in refractive error between lens-treated eyes and control eyes in the trichostatin-A-treated animals after 3 weeks of lens treatment was 0.48 ± 1.46 D versus -10.47 ± 3.02 D in the control group, P = 4.43 × 10^-10.
The experimental group of B6 mice was raised with -25 D lenses over right eye on a diet supplemented with 0.3 mg/kg of fingolimod phosphate for 3 weeks, while the control group of B6 mice with -25 D lenses over right eye was raised on a regular non-medicated diet. The interocular difference in refractive error between lens-treated eyes and control eyes in the fingolimod-treated animals after 3 weeks of lens treatment was -0.02 ± 1.58 D versus -10.47 ± 3.02 D in the control group, P = 4.63 × 10^-9.
The experimental group of B6 mice was raised with -25 D lenses over right eye on a diet supplemented with 20 mg/kg of berberine chloride for 3 weeks, while the control group of B6 mice with -25 D lenses over right eye was raised on a regular non-medicated diet. The interocular difference in refractive error between lens-treated eyes and control eyes in the berberine-treated animals after 3 weeks of lens treatment was -5.15 ± 1.22 D versus -10.47 ± 3.02 D in the control group, P = 1.31 × 10^-4.
The experimental group of B6 mice was raised with -25 D lenses over right eye on a diet supplemented with 10 mg/kg of S-methyl-L-thiocitrulline hydrochloride for 3 weeks, while the control group of B6 mice with -25 D lenses over right eye was raised on a regular non-medicated diet. The interocular difference in refractive error between lens-treated eyes and control eyes in the S-methyl-L-thiocitrulline-treated animals after 3 weeks of lens treatment was -0.28 ± 2.17 D versus -10.47 ± 3.02 D in the control group, P = 6.73 × 10^-9.

In data set [6] the test system is myopia development. The following applies: chicken, mouse and non-human primates; cited from earlier work.
Data set [7] has as its system progression of myopia. The following applies: 1-year period, cited from earlier work.
Data set [8] concerns development of ocular components and emmetropization. The following applies: juvenile primates; cited from earlier work.
In data set [9] the test system is progression of myopia. As to conditions: cited from earlier work.
In data set [10] the test system is progression of myopia in children. As to conditions: cited from earlier work.
The test system of data set [11] is experimentally induced myopia. As to conditions: chickens; cited from earlier work.
Data set [12] has as its system myopia. The following applies: guinea pigs; cited from earlier work.
Another data set relates to mouse model of myopia. The following applies: cited from earlier work.
The test system of a further data set is experimental myopia. As to conditions: tree shrews, rhesus monkeys, and chickens; cited from earlier work.
In data set [13] the test system is progression of myopia. The following applies: guinea pigs; cited from earlier work.
In data set [14] the test system is progression of myopia in children. As to conditions: cited from earlier work. The source holds these as a separate data set.

Where a name gives a salt, the structure may show the parent alone. Read-outs that look alike come from different tables or passages of the source.

Consider `CCCCP(=O)(O)C1CCC(N)C1` (stereo not shown) [3-ACPBPA, (3-aminocyclopentanyl) butylphosphinic acid], for which the “suppression of myopia development” value in the data set with myopia development [1] is given as “suppress myopia development”.

Turning to `Cn1cnc2[nH]c(=O)[nH]c(=O)c21` [7-MX, 7-methylxanthine], the “changes in the sclera” value in the data set on sclera was “thickening of the sclera and an increase in the diameter of the scleral collagen fibrils”. For the same compound, the “effect on myopia progression” value in [2] (subjects with high rates of progression) is on record as “no effect”. Moreover, the figures for the suppression of myopia result (in data set [2] (subjects with slow progressing myopia); with myopia [3]; in the data set on myopia [4]) were “approximately 22%”, 49% and “can suppress myopia in primates”, respectively. The “reduction of the extent of induced myopia” value in the data set with induced myopia is reported as “approximately 67%”.

Consider `NCCCP(=O)(O)CC1CCCCC1` [CGP46381], for which, in the data set on myopia development [1], the “suppression of myopia development” value was “suppress myopia development”.

Take `[H]/N=C(\NCCC[C@H](N)C(=O)O)SC` [S-methyl-L-thiocitrulline hydrochloride]: in [5] (diet supplemented with 10 mg/kg), the “interocular difference in refractive error between lens-treated eyes and control eyes” value is -0.28 ± 2.17 D. Further, the “inhibition (suppression) of myopia” value in [5] (10 mg/kg in diet) was “approximately 97%”.

As for `CP(=O)(O)C1=CCNCC1` [TPMPA, (1,2,5,6-tetrahydropyridin-4yl) methylphosphinic acid], the “suppression of myopia development” value in the data set with myopia development [1] is recorded as “suppress myopia development”.

As for `CN1CCc2cccc3c2[C@H]1Cc1ccc(O)c(O)c1-3` [apomorphine], the “inhibition of myopia development” value in the data set with myopia development [6] is “inhibit myopia development”.

Take `CN1[C@@H]2CC[C@H]1C[C@@H](OC(=O)C(CO)c1ccccc1)C2` (stereo partly shown) [atropine]: the “retardation of progression of myopia” value in the data set on progression of myopia [7] (0.01% atropine) is given as 27%; in the data set with progression of myopia [7] (0.025% atropine) it was 43%; with progression of myopia [7] (0.05% atropine), 67%. In data set [8], the “long-term effects on development of ocular components and emmetropization” value is recorded as “long-term adverse effects”. Besides, the “retardation of the progression of myopia” value is “approximately 76%” in the data set with progression of myopia [9] (1% atropine eye drops, 2-year treatment period); 59% in data set [10] (0.01% atropine, children); 68% in data set [10] (0.1% atropine, children). For the same compound, the side effects entry in the data set on progression of myopia [9] (1% atropine) was “photophobia, reduced accommodation amplitude, and blurred vision”. Besides, in [10] (0.01% atropine, 5-year follow up study), the long-term suppression effect entry is reported as “approximately 30%”. In data set [10] (0.01% atropine, after cessation of treatment), the “drop of the progression rate after cessation of treatment” value is “approximately 30%”. Besides, in data set [10] (0.5% atropine, children), the “suppression of the progression of myopia” value is 75%.

As for `COc1ccc2cc3[n+](cc2c1OC)CCc1cc2c(cc1-3)OCO2` [berberine chloride], the “interocular difference in refractive error between lens-treated eyes and control eyes” value in data set [5] (diet supplemented with 20 mg/kg) is on record as -5.15 ± 1.22 D. Besides, the “inhibition (suppression) of myopia” value in data set [5] (20 mg/kg in diet) is listed as “approximately 50%”.

`Brc1c(NC2=NCCN2)ccc2nccnc12` [brimonidine]: the “inhibition of experimentally induced myopia” value in data set [11] was “suppressed myopia”. Besides, the suppression of myopia result in the data set on myopia [12] is listed as “suppressed myopia”.

In the case of `Clc1cccc(Cl)c1N=C1NCCN1` [clonidine], the “inhibition of experimentally induced myopia” value in [11] was “inhibit experimentally induced myopia”.

Turning to `CC(/C=C/C=C(\C)C(=O)O)=C\C=C\C=C(C)\C=C\C=C(/C)C(=O)O` [crocetin], in the data set with mouse model of myopia, the “outcome of drug screen” value is “potential anti-myopia agent”.

Turning to `CC(Cc1ccc(O)cc1)NCC(O)c1cc(O)cc(O)c1` (stereo not shown) [fenoterol hydrobromide], the “interocular difference in refractive error between lens-treated eyes and control eyes” value in data set [5] (diet supplemented with 1 mg/kg) is given as -0.8 ± 1.80 D.

Turning to `CCCCCCCCc1ccc(CCC(N)(CO)COP(=O)(O)O)cc1` (stereo not shown) [fingolimod phosphate, fingolimod (FTY720) phosphate], the “interocular difference in refractive error between lens-treated eyes and control eyes” value in data set [5] (diet supplemented with 0.3 mg/kg) is reported as -0.02 ± 1.58 D.

On to `N=C(N)NC(=O)Cc1c(Cl)cccc1Cl` [guanfacine], for which the “inhibition of experimentally induced myopia” value in data set [11] is “inhibit experimentally induced myopia”.

In the case of `C[C@@H]1OC(=O)[C@H]2C[C@H]3CCCC[C@@H]3[C@@H](/C=C/[C@H]3CCC[C@H](C)N3C)[C@@H]12` [himbacine], in the data set with experimental myopia, the “inhibition of the development of experimental myopia” value is recorded as “inhibit the development of experimental myopia”.

For the compound `CC(C)OC(=O)CCC/C=C\C[C@@H]1[C@@H](CC[C@@H](O)CCc2ccccc2)[C@H](O)C[C@@H]1O` [latanoprost], the “reduction of progression of myopia” value in the data set on progression of myopia [13] is “reduce progression of myopia”.

For `C[C@@H]1CN([C@H]2CC[C@](C#N)(c3ccc(F)cc3)CC2)CC[C@]1(C(=O)O)c1ccccc1` [levocabastine hydrochloride], in data set [5] (diet supplemented with 5 mg/kg), the “interocular difference in refractive error between lens-treated eyes and control eyes” value was “+0.55 ± 2.32 D”.

Take `CN1CCN(CC(=O)N2c3ccccc3C(=O)Nc3cccnc32)CC1` [pirenzepine]: in the data set on experimental myopia, the “inhibition of the development of experimental myopia” value is on record as “inhibit the development of experimental myopia”. Also, in data set [14] (children), the “suppression of the progression of myopia” value is reported as 40%. Besides, the side effects entry in [14] (clinical trials eventually discontinued) is given as “serious side effects”.

Consider `CC(=C\[C@@H](C)C(=O)c1ccc(N(C)C)cc1)/C=C(\C)C(=O)NO` [trichostatin A], for which the “interocular difference in refractive error between lens-treated eyes and control eyes” value in data set [5] (diet supplemented with 1 mg/kg) came out at 0.48 ± 1.46 D. The “inhibition (suppression) of myopia” value in [5] (1 mg/kg in diet) is given as “more than 100%”.
